Test results: ChEMBL document CHEMBL4038308, “Lipophosphonoxins II: Design, Synthesis, and Properties of Novel Broad Spectrum Antibacterial Agents” (J Med Chem, 2017)
Calls of active or inactive are those of the source.

Tests used:
Bacillus subtilis [1] = experiment: Antibacterial activity against Bacillus subtilis assessed as inhibition of peptidoglycan synthesis at 100 mg/L after 50 mins by [3H]-N-acetylglucosamine incorporation assay; format: functional
Bacillus subtilis [2] = experiment: Antibacterial activity against Bacillus subtilis assessed as inhibition of DNA synthesis at 100 mg/L after 50 mins by [3H]thymidine incorporation assay; format: functional
Bacillus subtilis [3] = experiment: Antibacterial activity against Bacillus subtilis assessed as inhibition of protein synthesis at 100 mg/L after 50 mins by [35S]-methionine incorporation assay; format: functional
Bacillus subtilis [4] = experiment: Antibacterial activity against Bacillus subtilis assessed as inhibition of RNA synthesis at 100 mg/L after 50 mins by [3H]-uridine incorporation assay; format: functional
Bacillus subtilis [5] = experiment: Antibacterial activity against Bacillus subtilis assessed as inhibition of plasma membrane lipids synthesis at 100 mg/L after 50 mins by [3H]-sodium acetate incorporation assay; format: functional
TERT-RPE1 [6] = experiment: Cytotoxicity against human RPE1 cells assessed as disruption of cell membrane integrity at >80 mg/L after 4 hrs by CytoTox-ONE-based assay; details: tert-rpe1, 4 h
TERT-RPE1 [7] = experiment: Cytotoxicity against human RPE1 cells assessed as disruption of cell membrane integrity after 4 hrs by CytoTox-ONE-based assay; details: tert-rpe1, 4 h
Staphylococcus aureus [8] = experiment: Induction of cytoplasmic membrane permeabilization in Staphylococcus aureus CCM 4223 assessed as increase in propidium iodide fluorescence intensity at 5 mg/L by spectrofluorometric analysis; format: functional
Staphylococcus aureus [9] = experiment: Antibacterial activity against Staphylococcus aureus CCM 4223 after 24 hrs by microdilution method; format: functional; details: CCM 4223, 24 h
Escherichia coli [10] = experiment: Bactericidal activity against Escherichia coli CCM 3954 assessed as reduction in bacterial count at 12.5 mg/L after 45 mins by time kill assay; format: functional
Enterococcus faecalis = experiment: Antibacterial activity against Enterococcus faecalis CCM 4224 after 24 hrs by microdilution method; format: functional; details: CCM 4224, 24 h
Staphylococcus aureus [11] = experiment: Bactericidal activity against Staphylococcus aureus CCM 4223 assessed as reduction in bacterial count at 25 mg/L after 6 hrs by time kill assay; format: functional
Lipid bilayer = experiment: Binding affinity to DOPG large unilamellar vesicle assessed as carboxyfluorescein leakage at 10 mg/L after 20 secs by fluorescence-based assay relative to control
[12] = test system: Staphylococcus epidermidis; experiment: Antibacterial activity against Staphylococcus epidermidis 8700/B after 24 hrs by microdilution method; format: functional
Escherichia coli [13] = experiment: Antibacterial activity against Escherichia coli CCM 3954 after 24 hrs by microdilution method; format: functional; details: CCM 3954, 24 h
[14] = Chemical stability of compound at 50 to 500 mg/L at pH 5 after 24 hrs at 37 degC by LC-MS analysis; format: physicochemical; details: buffer, pH 5, 24 h
[15] = test system: Stenotrophomonas maltophilia; experiment: Antibacterial activity against Stenotrophomonas maltophilia S2-23 after 24 hrs by microdilution method; format: functional; details: S2-23, 24 h
TERT-RPE1 [16] = experiment: Cytotoxicity against human RPE1 cells assessed as reduction in cell viability after 48 hrs by ATPlite reagent based assay; details: tert-rpe1, 48 h
[17] = Chemical stability of compound at 50 to 500 mg/L at pH 8.8 after 24 hrs at 37 degC by LC-MS analysis; format: physicochemical; details: buffer, pH 8.8, 24 h
[18] = Critical micellar concentration of the compound by capillary electrophoresis method
Salmonella enteritidis = experiment: Antibacterial activity against Salmonella enteritidis S2-25 after 24 hrs by microdilution method; format: functional, Salmonella enterica subsp. enterica serovar Enteritidis; details: Salmonella enterica, S2-25, 24 h
Staphylococcus aureus [19] = experiment: Bactericidal activity against Staphylococcus aureus CCM 4223 assessed as reduction in bacterial count at 6.25 to 12.5 mg/L after 24 hrs by time kill assay; format: functional
Bacillus subtilis [20] = experiment: Antibacterial activity against Bacillus subtilis assessed as inhibition of plasma membrane lipids synthesis at 1.5 mg/L after 50 mins by [3H]-sodium acetate incorporation assay; format: functional
[21] = test system: Staphylococcus epidermidis; experiment: Induction of cytoplasmic membrane permeabilization in Staphylococcus epidermidis 8700/B assessed as increase in propidium iodide fluorescence intensity at 5 mg/L by spectrofluorometric analysis; format: functional
Pseudomonas aeruginosa [22] = experiment: Antibacterial activity against Pseudomonas aeruginosa CCM 3955 after 24 hrs by microdilution method; format: functional; details: CCM 3955, 24 h
J774.A1 = experiment: Cytotoxicity against mouse J774A.1 cells assessed as damage to cell membrane by measuring propidium iodide intake at 5 mg/L by spectrofluorometric analysis; format: cell-based
Staphylococcus aureus [23] = experiment: Antibacterial activity against methicillin-resistant Staphylococcus aureus 4591 clinical isolates after 24 hrs by microdilution method; format: functional; details: Staphylococcus aureus, 4591, 24 h
HepG2 [24] = experiment: Cytotoxicity against human HepG2 cells assessed as disruption of cell membrane integrity after 4 hrs by CytoTox-ONE-based assay; details: hepg2, 4 h
Bacillus subtilis [25] = experiment: Antibacterial activity against Bacillus subtilis assessed as inhibition of peptidoglycan synthesis at 1.5 mg/L after 50 mins by [3H]-N-acetylglucosamine incorporation assay; format: functional
Enterococcus faecium = experiment: Antibacterial activity against vancomycin-resistant Enterococcus faecium 419/ana clinical isolates after 24 hrs by microdilution method; format: functional
Escherichia coli [26] = experiment: Induction of cytoplasmic membrane permeabilization in Escherichia coli CCM 3954 assessed as increase in propidium iodide fluorescence intensity at 5 mg/L by spectrofluorometric analysis; format: functional
HepG2 [27] = experiment: Induction of apoptosis in human HepG2 cells assessed as caspase 3/7 activation up to 80 mg/L after 4 hrs by caspase-Glo 3/7 luminescent assay; format: cell-based; details: hepg2, 4 h
Bacillus subtilis [28] = experiment: Antibacterial activity against Bacillus subtilis assessed as inhibition of RNA synthesis at 1.5 mg/L after 50 mins by [3H]-uridine incorporation assay; format: functional
Acinetobacter baumannii = experiment: Antibacterial activity against Acinetobacter baumannii A3-08 after 24 hrs by microdilution method; format: functional; details: A3-08, 24 h
[29] = Pore forming activity across black lipid bilayer membranes assessed as induction of variation in membrane current by measuring pore conductance at 5 ug/ml
BJ = experiment: Cytotoxicity against human BJ cells assessed as reduction in cell viability after 48 hrs by ATPlite reagent based assay
Oryctolagus cuniculus [30] = experiment: Toxicity in topically applied rabbit assessed as skin irritation measured by measuring physiological abnormalities up to 7 days post dose; details: in vivo, topical_or_ocular, 168 h
[31] = Chemical stability of compound at 50 to 500 mg/L at pH 0.18 after 24 hrs at 37 degC by LC-MS analysis; format: physicochemical; details: buffer, pH 0.18, 24 h
Mus musculus [32] = experiment: Toxicity in ICR mouse assessed as mortality up to 2000 mg/kg, po administered as single dose measured for 2 weeks; format: organism-based; details: in vivo, 336 h
TERT-RPE1 [33] = experiment: Induction of apoptosis in human RPE1 cells assessed as caspase 3/7 activation up to 80 mg/L after 4 hrs by caspase-Glo 3/7 luminescent assay; format: cell-based; details: tert-rpe1, 4 h
[34] = Chemical stability of compound at 50 to 500 mg/L at pH 8.8 after 24 hrs at room temperature by LC-MS analysis; format: physicochemical; details: buffer, pH 8.8, 24 h
[35] = Chemical stability of compound at 50 to 500 mg/L at pH 0.18 after 24 hrs at room temperature by LC-MS analysis; format: physicochemical; details: buffer, pH 0.18, 24 h
HepG2 [36] = experiment: Cytotoxicity against human HepG2 cells assessed as reduction in cell viability after 48 hrs by ATPlite reagent based assay; details: hepg2, 48 h
Bacillus subtilis [37] = experiment: Antibacterial activity against Bacillus subtilis after 24 hrs by microdilution method; format: functional
Pseudomonas aeruginosa [38] = experiment: Induction of cytoplasmic membrane permeabilization in Pseudomonas aeruginosa CCM 3955 assessed as increase in propidium iodide fluorescence intensity at 5 mg/L by spectrofluorometric analysis; format: functional
[39] = test system: Staphylococcus haemolyticus; experiment: Antibacterial activity against fluoroquinolne-resistant Staphylococcus haemolyticus 16568 after 24 hrs by microdilution method; format: functional; details: Staphylococcus haemolyticus, 16568, 24 h
Streptococcus agalactiae = experiment: Antibacterial activity against Streptococcus agalactiae after 24 hrs by microdilution method; format: functional
Burkholderia multivorans = experiment: Antibacterial activity against Burkholderia multivorans after 24 hrs by microdilution method; format: functional
Escherichia coli [40] = experiment: Bactericidal activity against Escherichia coli CCM 3954 assessed as reduction in bacterial count at 25 mg/L after 30 mins by time kill assay; format: functional
Bacillus subtilis [41] = experiment: Antibacterial activity against Bacillus subtilis assessed as inhibition of DNA synthesis at 1.5 mg/L after 50 mins by [3H]thymidine incorporation assay; format: functional
Bacillus subtilis [42] = experiment: Antibacterial activity against Bacillus subtilis assessed as inhibition of protein synthesis at 1.5 mg/L after 50 mins by [35S]-methionine incorporation assay; format: functional
Oryctolagus cuniculus [43] = experiment: Toxicity in topically dosed rabbit assessed as skin irritation by measuring behavioral abnormalities measured up to 7 days post dose; format: organism-based; details: in vivo, topical_or_ocular, 168 h
Oryctolagus cuniculus [44] = experiment: Toxicity in topically applied rabbit assessed as skin irritation measured up to 14 days post dose; details: in vivo, topical_or_ocular, 336 h
Escherichia coli [45] = experiment: Antibacterial activity against Escherichia coli 16702 after 24 hrs by microdilution method; format: functional; details: Escherichia coli, 16702, 24 h
Pseudomonas aeruginosa [46] = experiment: Antibacterial activity against Pseudomonas aeruginosa 16575 after 24 hrs by microdilution method; format: functional; details: Pseudomonas aeruginosa, 16575, 24 h
Mus musculus [47] = experiment: Toxicity in ICR mouse assessed as body weight loss up to 2000 mg/kg, po administered as single dose measured for 2 weeks; format: organism-based; details: in vivo, 336 h
[48] = Chemical stability of compound at 50 to 500 mg/L at pH 5 after 24 hrs at room temperature by LC-MS analysis; format: physicochemical; details: buffer, pH 5, 24 h
Bacillus subtilis [49] = experiment: Antibacterial activity against Bacillus subtilis assessed as inhibition of DNA synthesis at 10 mg/L after 50 mins by [3H]thymidine incorporation assay; format: functional
Bacillus subtilis [50] = experiment: Antibacterial activity against Bacillus subtilis assessed as inhibition of peptidoglycan synthesis at 10 mg/L after 50 mins by [3H]-N-acetylglucosamine incorporation assay; format: functional
Bacillus subtilis [51] = experiment: Antibacterial activity against Bacillus subtilis assessed as inhibition of RNA synthesis at 10 mg/L after 50 mins by [3H]-uridine incorporation assay; format: functional
Bacillus subtilis [52] = experiment: Antibacterial activity against Bacillus subtilis assessed as inhibition of protein synthesis at 10 mg/L after 50 mins by [35S]-methionine incorporation assay; format: functional
Bacillus subtilis [53] = experiment: Antibacterial activity against Bacillus subtilis assessed as inhibition of plasma membrane lipids synthesis at 10 mg/L after 50 mins by [3H]-sodium acetate incorporation assay; format: functional

C/C=C/C/C=C/CCC(=O)[C@H]1O[C@H]1C(N)=O
active: inhibition (Bacillus subtilis [1]) | inhibition (Bacillus subtilis [2]) | inhibition (Bacillus subtilis [3]) | inhibition (Bacillus subtilis [4]) | inhibition (Bacillus subtilis [5])

CCCCCCCCCCCCCCCOP(=O)(CCN(CCCNC(=N)N)CCCNC(=N)N)OC[C@H]1O[C@@H](n2ccc(=O)[nH]c2=O)[C@H](O)[C@@H]1O (some centres not stated)
active: Activity (Staphylococcus aureus [8]) | Activity (Escherichia coli [10]) | Activity (Staphylococcus aureus [11]) | Activity (Staphylococcus aureus [19]) | Activity [21] | Activity (Escherichia coli [26]) | Activity (Pseudomonas aeruginosa [38]) | Activity (Escherichia coli [40])
1.56 mg/L: MIC [12] | MIC (Salmonella enteritidis) | MIC [39] | MIC (Streptococcus agalactiae) | MIC (Pseudomonas aeruginosa [46])
0.78 mg/L: MIC (Escherichia coli [13]) | MIC (Pseudomonas aeruginosa [22]) | MIC (Escherichia coli [45])
25 mg/L: MIC (Enterococcus faecalis) | MIC (Burkholderia multivorans)
23 to 168 pS: Activity [29]
36.7 mg/L: Activity (HepG2 [36])
< 85%: Activity (Lipid bilayer)
1.42 mM: CMC [18]
50 mg/L: MIC (Enterococcus faecium)
0.39 mg/L: MIC (Bacillus subtilis [37])
29.6 mg/L: Activity (BJ)
3.13 mg/L: MIC (Staphylococcus aureus [9]) | MIC [15] | MIC (Staphylococcus aureus [23]) | MIC (Acinetobacter baumannii)
Stable: Stability [14] | Stability [17] | Stability [31] | Stability [34] | Stability [35] | Stability [48]
39.8 mg/L: Activity (TERT-RPE1 [16])
inactive: inhibition (Bacillus subtilis [20]) | inhibition (Bacillus subtilis [25]) | inhibition (Bacillus subtilis [28]) | inhibition (Bacillus subtilis [41]) | inhibition (Bacillus subtilis [42])
Non-Toxic: Activity (TERT-RPE1 [6]) | Activity (TERT-RPE1 [7]) | Activity (J774.A1) | Activity (HepG2 [24]) | Activity (HepG2 [27]) | Activity (Oryctolagus cuniculus [30]) | Activity (Mus musculus [32]) | Activity (TERT-RPE1 [33]) | Activity (Oryctolagus cuniculus [43]) | Activity (Oryctolagus cuniculus [44]) | Activity (Mus musculus [47])

CCn1cc(C(=O)O)c(=O)c2ccc(C)nc21
active: inhibition (Bacillus subtilis [1]) | inhibition (Bacillus subtilis [2]) | inhibition (Bacillus subtilis [3]) | inhibition (Bacillus subtilis [4]) | inhibition (Bacillus subtilis [5])

O=C(N[C@H](CO)[C@H](O)c1ccc([N+](=O)[O-])cc1)C(Cl)Cl
active: inhibition (Bacillus subtilis [49]) | inhibition (Bacillus subtilis [50]) | inhibition (Bacillus subtilis [51]) | inhibition (Bacillus subtilis [52]) | inhibition (Bacillus subtilis [53])
